The values below come from publication PMC10482691, “LTP induction by structural rather than enzymatic functions of CaMKII” (Nature, 2023).

One experiment concerns the target MAPK2(h) (Homo sapiens, UniProt P28482). The experiment is described as follows: Kinase selectivity panel (residual activity at 1 μM). Type of experiment: biochemical. The conditions noted are these: inhibitor at 1 μM; read-out: residual kinase activity in % of maximal activity.
The target of the next experiment is Arg(h) (Homo sapiens, UniProt P42684). The experiment is described as above. The note with it: inhibitor at 1 μM; read-out: residual kinase activity in % of maximal activity. Type of experiment: biochemical.
The target in experiment [1] is PI3 Kinase (p110a/p85a)(h) (Homo sapiens, UniProt P42336). The description is as above. Type of experiment: biochemical. The conditions noted are these: inhibitor at 1 μM; read-out: residual kinase activity in % of maximal activity.
For the next experiment, the target named is PKBγ(h) (Homo sapiens, UniProt Q9Y243). The experiment is described as above. The note with it: inhibitor at 1 μM; read-out: residual kinase activity in % of maximal activity. Type of experiment: biochemical.
The target in a further experiment is PDK1(h) (Homo sapiens, UniProt O15530). Described as above. Type of experiment: biochemical. The note with it: inhibitor at 1 μM; read-out: residual kinase activity in % of maximal activity.
The target of another experiment is FAK(h) (Homo sapiens, UniProt Q05397). The description is as above. Type of experiment: biochemical. The note with it: inhibitor at 1 μM; read-out: residual kinase activity in % of maximal activity.
The next experiment deals with CaMKIIα F89G (Homo sapiens, UniProt Q9UQM7, F89G). Briefly: In vitro kinase reactions with CaMKII F89G ± NM-PP1 (pT286, pS831). Type of experiment: biochemical. The conditions noted are these: 10 µM NM-PP1. The procedure: Fig. 4 The CaMKII mutation F89G impairs ATP binding but binds the ATP-competitive inhibitor NM-PP1 that restores GluN2B binding and LTP-induced synaptic translocation. Data are presented as mean values ± s.e.m. a, Schematic of the pharmacogenetic method of ATP-competitive CaMKII inhibition; enlargement of the CaMKII ATP-binding pocket by the F89G mutation allows for selective binding of the ATP-competitive inhibitor NM-PP1. b, Immunoblots of in vitro kinase reactions at 30 °C including GFP–CaMKII WT, K42M and F89G with GST–GluA1-c tail. […] Correlation indices were measured before and after Ionomycin-induced colocalization of GFP–CaMKII (WT, K42M and F89G) with mCherry-2BC, represented as change in the correlation index (vehicle: n = 22, 17, 12 cells; NM-PP1: n = 20, 24, 13 cells; one-way ANOVA, Tukey’s multiple comparisons test). […] CaMKII synaptic enrichment was measured before and after cLTP (n = 13, 14, 14 cells; RM two-way ANOVA with Šídák’s multiple comparisons test). […] CaMKII synaptic enrichment was measured before and after cLTP (n = 7, 6, 7 cells; RM two-way ANOVA with Šídák’s multiple comparisons test). […]
CaMKII-mediated phosphorylation of GluA1 S831 or GluN2B S1303 was measured by in vitro kinase reaction with a purified GST–GluA1 C-terminal tail or GST-GluN2B C-terminal tail. […]

For experiment [2], the target named is T1, GFP–CaMKII F89G / mCh-GluN2B-c tail in HEK293 cells (Homo sapiens, UniProt Q9UQM7, F89G).
T1 construct: expressed in transfected cells; host or cells: HEK293
Briefly: Ionomycin-induced colocalization of GFP–CaMKII F89G and mCherry-2BC in HEK293 cells. The class given is cell-based. The conditions noted are these: 10 µM NM-PP1.

Chain of PDK1(h) (O15530 whole entry): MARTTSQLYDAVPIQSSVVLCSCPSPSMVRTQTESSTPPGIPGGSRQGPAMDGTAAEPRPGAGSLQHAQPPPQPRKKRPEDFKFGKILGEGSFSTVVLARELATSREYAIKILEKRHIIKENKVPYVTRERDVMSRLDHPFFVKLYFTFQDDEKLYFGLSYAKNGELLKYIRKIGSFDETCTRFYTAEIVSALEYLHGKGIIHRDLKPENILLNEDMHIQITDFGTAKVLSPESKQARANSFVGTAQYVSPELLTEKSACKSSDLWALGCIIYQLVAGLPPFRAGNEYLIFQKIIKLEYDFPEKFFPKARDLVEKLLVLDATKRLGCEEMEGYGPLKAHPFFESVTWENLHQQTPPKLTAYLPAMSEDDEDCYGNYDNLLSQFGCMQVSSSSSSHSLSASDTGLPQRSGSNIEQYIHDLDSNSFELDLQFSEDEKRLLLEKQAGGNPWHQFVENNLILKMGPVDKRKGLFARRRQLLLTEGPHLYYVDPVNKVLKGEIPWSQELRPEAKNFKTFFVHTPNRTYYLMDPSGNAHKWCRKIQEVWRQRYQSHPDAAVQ
Chain of FAK(h) (Q05397 whole entry): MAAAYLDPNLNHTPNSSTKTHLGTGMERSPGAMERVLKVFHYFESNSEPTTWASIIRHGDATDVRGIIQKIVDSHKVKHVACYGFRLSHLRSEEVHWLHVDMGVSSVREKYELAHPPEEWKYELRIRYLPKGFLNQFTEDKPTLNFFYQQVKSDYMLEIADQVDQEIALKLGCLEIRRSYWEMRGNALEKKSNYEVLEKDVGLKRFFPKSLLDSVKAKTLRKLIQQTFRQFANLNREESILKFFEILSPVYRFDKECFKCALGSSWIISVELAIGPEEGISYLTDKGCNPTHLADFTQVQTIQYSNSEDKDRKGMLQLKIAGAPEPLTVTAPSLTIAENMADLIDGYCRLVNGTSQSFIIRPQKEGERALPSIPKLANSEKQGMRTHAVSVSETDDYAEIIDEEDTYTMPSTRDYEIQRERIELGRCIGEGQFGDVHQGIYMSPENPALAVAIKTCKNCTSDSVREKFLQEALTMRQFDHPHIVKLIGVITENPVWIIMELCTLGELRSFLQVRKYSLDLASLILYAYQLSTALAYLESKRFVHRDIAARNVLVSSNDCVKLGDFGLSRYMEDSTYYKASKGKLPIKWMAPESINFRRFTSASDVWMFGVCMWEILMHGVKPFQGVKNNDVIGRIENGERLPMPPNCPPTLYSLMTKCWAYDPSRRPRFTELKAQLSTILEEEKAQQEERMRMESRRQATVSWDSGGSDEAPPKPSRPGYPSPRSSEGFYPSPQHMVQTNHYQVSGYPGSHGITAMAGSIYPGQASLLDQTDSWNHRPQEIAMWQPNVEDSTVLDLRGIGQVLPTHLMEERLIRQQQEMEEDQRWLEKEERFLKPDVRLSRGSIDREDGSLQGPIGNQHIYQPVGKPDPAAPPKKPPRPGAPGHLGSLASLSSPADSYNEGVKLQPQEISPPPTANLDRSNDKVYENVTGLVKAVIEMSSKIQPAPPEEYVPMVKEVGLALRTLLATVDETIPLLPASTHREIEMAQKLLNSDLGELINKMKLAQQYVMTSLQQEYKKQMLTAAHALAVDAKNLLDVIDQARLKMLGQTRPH
Chain of MAPK2(h) (P28482 whole entry): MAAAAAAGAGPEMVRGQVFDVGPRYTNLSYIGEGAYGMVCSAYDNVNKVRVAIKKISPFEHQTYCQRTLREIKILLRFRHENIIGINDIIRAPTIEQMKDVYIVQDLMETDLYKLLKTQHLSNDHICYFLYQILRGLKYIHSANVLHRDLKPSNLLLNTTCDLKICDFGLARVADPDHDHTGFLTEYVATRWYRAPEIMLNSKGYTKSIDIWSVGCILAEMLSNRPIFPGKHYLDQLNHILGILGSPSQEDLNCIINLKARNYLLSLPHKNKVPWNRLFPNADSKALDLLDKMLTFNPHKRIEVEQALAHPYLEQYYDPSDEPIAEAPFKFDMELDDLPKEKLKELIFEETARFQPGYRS
Chain of PKBγ(h) (Q9Y243 whole entry): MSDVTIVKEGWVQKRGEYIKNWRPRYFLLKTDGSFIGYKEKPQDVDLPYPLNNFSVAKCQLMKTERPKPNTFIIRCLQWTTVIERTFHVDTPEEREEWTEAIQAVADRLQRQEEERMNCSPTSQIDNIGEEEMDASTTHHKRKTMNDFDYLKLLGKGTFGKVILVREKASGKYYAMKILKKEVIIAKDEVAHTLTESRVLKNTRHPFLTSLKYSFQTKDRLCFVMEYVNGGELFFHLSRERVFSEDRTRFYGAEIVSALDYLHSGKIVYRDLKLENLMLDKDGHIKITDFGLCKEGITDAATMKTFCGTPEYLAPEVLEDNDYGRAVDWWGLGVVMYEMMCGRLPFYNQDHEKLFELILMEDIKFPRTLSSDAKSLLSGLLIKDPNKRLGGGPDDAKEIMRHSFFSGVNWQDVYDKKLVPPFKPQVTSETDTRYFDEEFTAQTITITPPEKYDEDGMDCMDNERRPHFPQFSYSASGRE
Chain of PI3 Kinase (p110a/p85a)(h) (P42336 whole entry): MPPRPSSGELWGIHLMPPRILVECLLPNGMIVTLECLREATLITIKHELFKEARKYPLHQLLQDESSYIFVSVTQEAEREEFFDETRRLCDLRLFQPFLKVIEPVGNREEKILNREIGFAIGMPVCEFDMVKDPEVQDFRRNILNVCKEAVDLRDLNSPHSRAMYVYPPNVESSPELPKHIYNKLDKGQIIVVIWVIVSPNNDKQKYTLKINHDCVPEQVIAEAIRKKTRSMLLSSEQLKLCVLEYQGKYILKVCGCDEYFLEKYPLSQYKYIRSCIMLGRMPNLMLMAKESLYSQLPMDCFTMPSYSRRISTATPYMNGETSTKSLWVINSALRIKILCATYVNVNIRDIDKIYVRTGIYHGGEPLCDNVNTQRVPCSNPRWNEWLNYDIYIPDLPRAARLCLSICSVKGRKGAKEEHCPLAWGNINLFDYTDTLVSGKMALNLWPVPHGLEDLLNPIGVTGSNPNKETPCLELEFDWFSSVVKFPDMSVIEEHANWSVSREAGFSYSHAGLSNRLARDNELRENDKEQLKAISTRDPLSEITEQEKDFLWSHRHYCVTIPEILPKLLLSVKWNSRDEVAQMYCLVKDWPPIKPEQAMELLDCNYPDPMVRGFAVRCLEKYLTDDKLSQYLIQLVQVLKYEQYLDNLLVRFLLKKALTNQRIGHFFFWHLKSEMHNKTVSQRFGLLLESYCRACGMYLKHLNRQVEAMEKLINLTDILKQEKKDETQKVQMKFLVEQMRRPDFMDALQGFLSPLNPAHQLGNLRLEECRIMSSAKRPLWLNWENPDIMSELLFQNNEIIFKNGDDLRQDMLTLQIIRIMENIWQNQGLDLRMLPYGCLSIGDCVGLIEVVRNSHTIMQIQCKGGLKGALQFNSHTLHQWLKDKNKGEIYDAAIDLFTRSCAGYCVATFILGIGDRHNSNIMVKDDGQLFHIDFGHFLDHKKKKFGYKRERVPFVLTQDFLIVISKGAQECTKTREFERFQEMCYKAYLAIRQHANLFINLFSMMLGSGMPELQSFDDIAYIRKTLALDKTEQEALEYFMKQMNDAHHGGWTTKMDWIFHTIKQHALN
Chain of PI3 Kinase (p110a/p85a)(h) (P27986 whole entry partner): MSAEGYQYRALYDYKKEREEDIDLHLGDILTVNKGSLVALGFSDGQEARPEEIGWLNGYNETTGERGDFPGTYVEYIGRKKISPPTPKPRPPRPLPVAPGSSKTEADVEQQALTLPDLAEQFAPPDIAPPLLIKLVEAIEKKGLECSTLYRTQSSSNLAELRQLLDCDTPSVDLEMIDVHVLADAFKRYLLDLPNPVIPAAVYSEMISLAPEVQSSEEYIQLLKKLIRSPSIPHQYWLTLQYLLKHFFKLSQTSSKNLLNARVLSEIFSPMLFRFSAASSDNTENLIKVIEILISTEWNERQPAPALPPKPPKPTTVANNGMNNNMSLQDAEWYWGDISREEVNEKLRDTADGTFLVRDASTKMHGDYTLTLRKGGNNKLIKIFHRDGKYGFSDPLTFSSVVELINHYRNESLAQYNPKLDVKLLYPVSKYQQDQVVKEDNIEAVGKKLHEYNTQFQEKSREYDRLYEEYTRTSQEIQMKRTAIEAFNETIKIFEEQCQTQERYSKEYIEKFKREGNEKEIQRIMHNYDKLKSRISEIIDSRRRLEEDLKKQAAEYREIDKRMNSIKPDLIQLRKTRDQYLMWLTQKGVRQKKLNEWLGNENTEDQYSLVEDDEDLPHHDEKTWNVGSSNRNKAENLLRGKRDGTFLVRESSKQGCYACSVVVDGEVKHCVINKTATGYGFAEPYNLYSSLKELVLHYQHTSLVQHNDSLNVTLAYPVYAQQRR

On to `NCCNc1cccc(-c2ccnc3[nH]c4ccccc4c23)c1` [AS283], for which the remaining activity at 1 µM at MAPK2(h) was 97%; at Arg(h) it was 96%; in experiment [1], 100%; on PKBγ(h) it was 42%; on PDK1(h), 78%; at FAK(h), 68%.

With `CC(C)(C)n1nc(Cc2cccc3ccccc23)c2c(N)ncnc21` [NM-PP1], on CaMKIIα F89G, the “effect on residual activity of CaMKII F89G” value is on record as “further reduced”. Moreover, in experiment [2], the “effect on binding of CaMKII F89G to GluN2B in HEK cells” value was “fully enabled binding”.
